For orientation: IC50 means the concentration that gives 50% inhibition. By inhibition is commonly meant the share of the control response that was lost under treatment. Read a low inhibition as a weak effect.

Assay [1] concerns Akt S473 phosphorylation. As to the kind of experiment: pS473-Akt HTRF assay. As to conditions: Mus musculus, N2a, Neuro 2A cells. The format is cell-based, Mouse. How it is done:
Neuro 2A cells were seeded (4,000 cells/well) in 4 µL of DMEM with 0.5% FBS and 1x Penicillin/Streptomycin in white solid bottom tissue-culture treated 1536-well plates (Greiner, 789173-F) with MultiDrop Combi Dispenser (Thermo Scientific). The cells were incubated for 24 h at 37 °C, 5% CO2, 95% humidity. Twenty-three nL of tested compounds were transferred to each well with an automated pin-tool station (Kalypsys). Following incubation for 15 min at 37 °C, 0.5 µL IGF (500 ng/mL of final concentration) was added and incubated for additional 40 min at 37 °C. After the addition of 1.5 µL 4x lysis buffer and 15-min incubation at room temperature (25 °C), 2 µL of HTRF® conjugated antibodies (fluorophore d2 conjugated anti-Akt monoclonal antibody and Europium^3+ cryptate-labeled anti-pS473-Akt monoclonal antibody, obtained from CisBio, 1:80 dilution) were added with BioRAPTR FRD™ (Beckman Coulter). The plates were incubated at room temperature for 20 h. The signal was measured by EnVision Multilabel Plate Reader (PerkinElmer) with excitation at 330 nm, emission at 620 nm (donor) and 665 nm (acceptor). Results were calculated and analyzed in a format of the ratio 665 nm/620 nm multiplied by 10^4.
Relative activity was calculated by normalizing each HTRF signal from each sample well to the mean HTRF signal from the DMSO-only control wells.
The Library of Pharmacologically Active Compounds (LOPAC, 1280 compounds) and the Molecular Library Small Molecular Repository Library (MLSMR, 373,868 compounds) were obtained from Sigma-Aldrich.
Quantitative HTS (qHTS) and curve response class classification
The qHTS screen was performed as described previously1. Each compound was titrated in seven concentrations. The final concentrations of the compounds assayed ranged from 4.9 nM to 76.6 µM. The curve response classifications (CRC), which can be used to depict potency, efficacy and reliability of the data, and to estimate an IC50 value, were determined by a customized software2. […]
Sigma-Aldrich) and the basal response (0% inhibition) was set to the DMSO control.
Efficacy of a compound refers to the highest response normalized to the maximal response of LY. The CRCs were grouped into 4 categories. Class 1 are well-fit and have both upper and lower asymptotes with efficacy greater than 30%
(Class1.1, >80% efficacy; Class 1.2; 30-80% efficacy). Class 2 are incomplete with only one asy mptote (Class 2.1, > 80% efficacy; Class 2.2, 30-80% % efficacy). Class 3 display activity only at the highest concentrations and efficacy >30%. Class 4 are with low efficacy (<30%) or no response and considered inactive3.
A general note: Time-resolved FRET reads energy transfer from a long-lived donor to a nearby acceptor.

For assay [2], the system named is Neuro 2A cells. Kind of assay: MTS cell proliferation assay. The format is cell-based, Mouse. As to conditions: 1 day. As to the method: (§1) Neuro 2A cells or NIH/3T3 cells (ATCC) were seeded at various confluency in a 96-well plate in 100 µL DMEM containing 5% FBS or 10% FBS with 1% penicillin streptomucin, respectively, at 37 °C in a 5% CO2 and 95% humidity incubator for 18 hr. To each well 1 µL inhibitor with various concentrations or DMSO was added. The final concentrations of the tested inhibitors were 0, 5, 10, 20, 40 and 80 µM for G7 and LY, and 0, 5, 10, 20, 40 and 80 nM for Torin1, based on their respective IC50 values (~µM for G7 and LY and ~ nM for Torin 1). After 24 hr, 20 µL of CellTiter 96® AQueous One Solution Reagent (Promega) were added. The plate was placed in the incubator for 2 h and absorbance at 490 nm was measured with a Synergy HT Microplate Reader (Bio-Tek).

The subject of assay [3] is LNCaP cells. Kind of assay: MTS cell proliferation assay. As to conditions: 1 day, 40% confluent. The format is cell-based. As to the method:
as §1
Fig. S8. Effect of G7 on proliferation of LNCaP cells. Cells that were 40% confluent in RPMI-1640 medium containing 10% FBS were treated with inhibitors for 1 day and subjected to MTS assays. *, µM for both G7 and LY and nM for Torin1. Data represent means ± SEM (n=3). G7, 4-phenylquinolin-2(1H)-one, LY, LY294002.
In general terms: Tetrazolium dyes change colour on reduction, which living cells bring about.

Assay [4] concerns mTORC2. Also on record: method as in PMID 22614243. As to conditions: cited from earlier work.
In assay [5] the target is T1, Akt (Mus musculus, UniProt P31750).
T1 construct: subjected to immunoprecipitation using protein G-plus and anti-AKT PH domain (Millipore); endogenous in cells; host or cells: Neuro 2A (mouse neuroblastoma), IGF-stimulated
As to the kind of experiment: Akt activity assay (immunoprecipitated Akt, K-Lisa). The note with it: LY at 125 µM. It is filed as cell-based. As to the method:
After overnight starvation by incubating with serum-free DMEM, Neuro 2A cells were treated with compound G7 at various concentrations for 30 min at room temperature followed by stimulation with IGF (final concentration of 100 ng/mL) for 30 min. Cells were lysed with lysis buffer containing 1% Triton X-100 and protease/phosphatase inhibitors (Cell Signaling Technology) and subjected to immunoprecipitation using protein G-plus and anti-AKT PH domain (Millipore). The activity of the immunopurified Akt was evaluated using a K-Lisa Akt activity kit (Millipore) in accordance with manufacturer’s instructions. The activity was normalized to Akt level in the immunoprecipitates determined by quantitative western blot analysis.

The structures appear in SMILES notation. Where two headings read alike, the source gives them in different places.

T1 sequence (P31750 whole entry, the tested form may be a part): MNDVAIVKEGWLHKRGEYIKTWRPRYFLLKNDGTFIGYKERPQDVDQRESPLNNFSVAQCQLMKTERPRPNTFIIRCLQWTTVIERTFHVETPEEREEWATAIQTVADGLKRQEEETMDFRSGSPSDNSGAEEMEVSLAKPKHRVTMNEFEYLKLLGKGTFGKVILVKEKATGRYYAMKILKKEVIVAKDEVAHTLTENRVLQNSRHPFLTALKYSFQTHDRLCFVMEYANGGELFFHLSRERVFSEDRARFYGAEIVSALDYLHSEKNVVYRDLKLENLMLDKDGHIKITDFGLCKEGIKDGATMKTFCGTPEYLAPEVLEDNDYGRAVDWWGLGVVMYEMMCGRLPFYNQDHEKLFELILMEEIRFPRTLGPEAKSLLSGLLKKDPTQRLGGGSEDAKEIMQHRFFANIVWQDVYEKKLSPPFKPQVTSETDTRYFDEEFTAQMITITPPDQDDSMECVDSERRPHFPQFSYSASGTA

Take `CCC(=O)N1CCN(c2ccc(-n3c(=O)ccc4cnc5ccc(-c6cnc7ccccc7c6)cc5c43)cc2C(F)(F)F)CC1` [Torin 1, 1-(4-(4-Propionylpiperazin-1-yl)-3-(trifluoromethyl)phenyl)-9-(quinolin-3-yl)benzo[h][1,6]naphthyridin-2(1H)-one]: the IC50 in assay [1] (384-well format, read-out: IC50) is 20 nM; in assay [1] (1536-well, inhibitor 15 min before IGF, read-out: apparent IC50), around 20 nM. Also, the “proliferation of Neuro 2A cells” value in assay [2] is reported as “inhibited the proliferation”. Moreover, the “proliferation of LNCaP prostate cancer cells” value in assay [3] is given as “inhibited the proliferation”.
As to `NC1(c2ccc(-c3nc4ccn5c(=O)[nH]nc5c4cc3-c3ccccc3)cc2)CCC1` [MK-2206], in assay [4], the “effect on mTORC2 activity” value is on record as “decrease mTORC2 activity”.
Take `O=c1cc(N2CCOCC2)oc2c(-c3ccccc3)cccc12` [LY294002, 2-(4-morpholinyl)-8-phenyl-4H-1-benzopyran-4-one]: the 50% inhibitory concentration (IC50) in assay [1] (inhibitor 15 min before IGF, read-out: IC50) worked out at 25000 nM. The inhibition at 125 µM in assay [5] is around 90%. The “proliferation of Neuro 2A cells” value in assay [2] is on record as “inhibited the proliferation”. The “proliferation of LNCaP prostate cancer cells” value in assay [3] is given as “inhibited the proliferation”.

The values above are taken from PMC5601486, “Identification of 4-phenylquinolin-2(1H)-one as a specific allosteric inhibitor of Akt” (Scientific Reports, 2017).
